{"source": "patent US6555709B1", "about": "“Aromatic amides, their preparation process and their use as pesticides” (Hoechst Schering AgrEvo S.A., priority 1997, dated 2003)", "assay_type_in_all_cases": "in vivo", "key": {"[1]": {"test_system": "Heliothis Virescens", "assay": "Study on Heliothis virescens, treated artificial medium", "conditions": "starting from a dose of 300 ppm; neonate larva on treated artificial medium; checked after seven days; 25° C.", "protocol": "C) Study on Heliothis Virescens The product was dissolved at the desired concentration in an acetone-water mixture (50-50). 50 μl of solution is deposited on the surface of small well containing approximately 2 grams of plant based artificial medium. One neonate larva of Heliothis virescens was then introduced into each well, which was sealed with a sheet of cellophane. The tests were kept at a temperature of 25° C., with a photoperiod of twelve hours., The mortality of the larvae was checked after seven days."}, "[2]": {"test_system": "Phaedon Cochleariae", "assay": "Study on Phaedon cochleariae, treated Chinese cabbage foliar disks", "conditions": "dose of 300 ppm; adults on dipped Chinese cabbage disks; checked after seven days; 25° C.", "protocol": "A) Study on Phaedon Cochleariae The product was dissolved at the desired concentration in an acetone-water mixture (50-50). Foliar disks of Chinese cabbage (Brassica pekinensis) were immersed for five seconds in the solution, then left to dry for one hour. Ten adults (a mixture of males and females) were added into a Petri dish containing a foliar disk. These were kept at a temperature of 25° C., with a photoperiod of twelve hours. After seven days, the mortality of the insects was checked and the foliar surface consumed is evaluated."}, "[3]": {"test_system": "Spodoptera Littoralis", "assay": "Study on Spodoptera littoralis, treated haricot leaves", "conditions": "starting from a dose of 300 ppm; larvae on dipped haricot leaves; checked after seven days; 25° C.", "protocol": "B) Study on Spodoptera Littoralis The product was dissolved at the desired concentration in an acetone-water mixture (50-50). Haricot leaves (Phaseolus vulgaris, var. […]) were immersed for five seconds in the solution, then left to dry in a Petri dish for one hour. Ten larvae of Spodoptera littoralis were then added to each dish. These are were at a temperature of 25° C., with a photoperiod of twelve hours. After seven days, the mortality of the larvae was checked and the foliar surface consumed is evaluated."}, "[4]": {"test_system": "Diabrotica undecimpunctata", "assay": "Study of the activity on Diabrotica, treated filter paper", "conditions": "starting from a dose of 300 ppm; final stage larvae on treated filter paper; checked 24 hours after treatment", "protocol": "D) Study of the Activity on Diabrotica The test insects were final stage larvae of Diabrotica undecimpunctata. A 9 cm disc of filter paper, placed at the bottom of Petri dish, was treated using 1 cm^3 of an acetone solution. After drying 15 larvae per dose were deposited and the mortality check was carried out 24 hours after treatment."}}, "data": [{"smiles": "Cc1ccccc1NC(=O)c1ccc(CC2=Cc3ccc(Cl)c(Cl)c3CC2)cc1", "note": "[Product A]", "values": [{"measurement": "activity (mortality of the larvae)", "setting": "[1]", "value": "very good activity"}, {"measurement": "activity (mortality of the insects and foliar surface consumed)", "setting": "[2]", "value": "very useful activity"}, {"measurement": "activity (mortality of the larvae and foliar surface consumed)", "setting": "[3]", "value": "very good activity"}, {"measurement": "activity (mortality)", "setting": "[4]", "value": "very good activity"}]}, {"smiles": "Cc1ccccc1NC(=O)c1ccc(Cc2ccc3cc(Cl)ccc3c2)cc1", "note": "[Product B]", "values": [{"measurement": "activity (mortality of the larvae)", "setting": "[1]", "value": "very good activity"}, {"measurement": "activity (mortality of the larvae and foliar surface consumed)", "setting": "[3]", "value": "very good activity"}]}, {"smiles": "Cc1ccccc1NC(=O)c1ccc(Cc2ccc3c(Br)cccc3c2)cc1", "note": "[Product C]", "values": [{"measurement": "activity (mortality of the larvae)", "setting": "[1]", "value": "very good activity"}, {"measurement": "activity (mortality of the larvae and foliar surface consumed)", "setting": "[3]", "value": "very good activity"}]}, {"smiles": "Cc1ccccc1NC(=O)c1ccc(Cc2ccc3cc(Br)ccc3c2)cc1", "note": "[Product D]", "values": [{"measurement": "activity (mortality of the larvae)", "setting": "[1]", "value": "very good activity"}, {"measurement": "activity (mortality of the larvae and foliar surface consumed)", "setting": "[3]", "value": "very good activity"}]}, {"smiles": "Cc1ccccc1NC(=O)c1ccc(CC2=Cc3ccc(Br)cc3CC2)cc1", "note": "[Product E]", "values": [{"measurement": "activity (mortality of the larvae)", "setting": "[1]", "value": "very good activity"}, {"measurement": "activity (mortality of the larvae and foliar surface consumed)", "setting": "[3]", "value": "very good activity"}]}, {"smiles": "Cc1ccccc1NC(=O)c1ccc(CC2CCc3cc(I)ccc3C2)cc1", "note": "(stereo not shown) [Product F]", "values": [{"measurement": "activity (mortality of the larvae)", "setting": "[1]", "value": "very good activity"}, {"measurement": "activity (mortality of the larvae and foliar surface consumed)", "setting": "[3]", "value": "very good activity"}]}, {"smiles": "Cc1ccccc1NC(=O)c1ccc(CC2=Cc3ccc(I)cc3CC2)cc1", "note": "[Product G]", "values": [{"measurement": "activity (mortality of the larvae)", "setting": "[1]", "value": "very good activity"}, {"measurement": "activity (mortality of the larvae and foliar surface consumed)", "setting": "[3]", "value": "very good activity"}]}, {"smiles": "Cc1ccccc1NC(=O)c1ccc(CC2=Cc3cc(Br)c(Br)cc3CC2)cc1", "note": "[Product H]", "values": [{"measurement": "activity (mortality of the larvae)", "setting": "[1]", "value": "very good activity"}, {"measurement": "activity (mortality of the larvae and foliar surface consumed)", "setting": "[3]", "value": "very good activity"}]}, {"smiles": "Cc1ccccc1NC(=O)c1ccc(Cc2ccc3c(c2)CC(Br)C(Br)C3)cc1", "note": "(stereo not shown) [Product I]", "values": [{"measurement": "activity (mortality of the larvae)", "setting": "[1]", "value": "very good activity"}, {"measurement": "activity (mortality of the larvae and foliar surface consumed)", "setting": "[3]", "value": "very good activity"}]}, {"smiles": "Cc1ccccc1NC(=O)c1ccc(CC2CCc3c(ccc(Cl)c3Cl)C2F)cc1", "note": "(stereo not shown) [Product J]", "values": [{"measurement": "activity (mortality of the larvae)", "setting": "[1]", "value": "very good activity"}, {"measurement": "activity (mortality of the larvae and foliar surface consumed)", "setting": "[3]", "value": "very good activity"}]}, {"smiles": "O=C(Nc1ccccc1)c1ccc(Cc2ccc3cc(Cl)c(Cl)cc3c2)cc1", "note": "[Product K]", "values": [{"measurement": "activity (mortality of the larvae)", "setting": "[1]", "value": "very good activity"}, {"measurement": "activity (mortality of the larvae and foliar surface consumed)", "setting": "[3]", "value": "very good activity"}]}, {"smiles": "CC(C)C(C)NC(=O)c1ccc(Cc2ccc3cc(Cl)ccc3c2)cc1", "note": "(stereo not shown) [Product L]", "values": [{"measurement": "activity (mortality of the larvae)", "setting": "[1]", "value": "very good activity"}, {"measurement": "activity (mortality)", "setting": "[4]", "value": "very good activity"}]}, {"smiles": "C=C(NC(C)C(C)C)c1ccc(Cc2ccc3cc(Cl)c(Cl)cc3c2)cc1", "note": "(stereo not shown) [Product M]", "values": [{"measurement": "activity (mortality of the larvae)", "setting": "[1]", "value": "very good activity"}, {"measurement": "activity (mortality)", "setting": "[4]", "value": "very good activity"}]}]}
